pEC50: −log10 of the molar value. Where a SMILES comes first, the peptide text is derived from it. Primed or numbered codes have the meaning given here. The star is where a group is joined. Adapalene = Adapaleneyl (acyl group from adapalene), COc1ccc(-c2ccc3cc(C(=O)*)ccc3c2)cc1C12CC3CC(CC(C3)C1)C2; Propyl(2R-PamO,3-PamO) = CCCCCCCCCCCCCCCC(=O)OC[C@H](C*)OC(=O)CCCCCCCCCCCCCCC; X2 = CCCCCCCCCCCCCCCC(=O)OCC(C*)OC(=O)CCCCCCCCCCCCCCC; X1 = CC(=O)NCCCOCCOCCOCCCNC(=O)COCC(=O)*; Palmitoyl = CCCCCCCCCCCCCCCC(=O)*; Ahx = NCCCCCC(=O)O; Dhc(Pam)2″ = lipid
Target: TLR2 (Homo sapiens, UniProt O60603)
Sequence (O60603 21-784): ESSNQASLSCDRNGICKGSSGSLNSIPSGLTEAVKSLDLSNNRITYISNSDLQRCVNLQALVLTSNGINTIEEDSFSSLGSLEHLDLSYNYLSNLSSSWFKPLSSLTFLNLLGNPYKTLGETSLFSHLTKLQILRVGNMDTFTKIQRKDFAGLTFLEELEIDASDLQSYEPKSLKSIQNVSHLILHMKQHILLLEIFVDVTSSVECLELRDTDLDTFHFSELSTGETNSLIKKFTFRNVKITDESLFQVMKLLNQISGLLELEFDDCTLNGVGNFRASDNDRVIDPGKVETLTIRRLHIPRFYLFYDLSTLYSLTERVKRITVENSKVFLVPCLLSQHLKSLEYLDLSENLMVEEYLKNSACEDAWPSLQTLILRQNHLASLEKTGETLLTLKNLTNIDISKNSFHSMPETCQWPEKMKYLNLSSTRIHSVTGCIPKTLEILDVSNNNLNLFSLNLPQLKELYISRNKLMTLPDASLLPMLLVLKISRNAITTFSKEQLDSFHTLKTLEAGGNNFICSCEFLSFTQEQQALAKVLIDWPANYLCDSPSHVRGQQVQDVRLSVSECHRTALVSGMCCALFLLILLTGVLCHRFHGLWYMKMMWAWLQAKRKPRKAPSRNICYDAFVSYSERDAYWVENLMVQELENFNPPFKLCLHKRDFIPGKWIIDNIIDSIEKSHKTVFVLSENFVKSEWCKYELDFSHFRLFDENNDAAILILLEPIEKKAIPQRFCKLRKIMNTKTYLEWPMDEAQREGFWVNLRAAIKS
Sequence (Q9Y2C9 32-796 partner): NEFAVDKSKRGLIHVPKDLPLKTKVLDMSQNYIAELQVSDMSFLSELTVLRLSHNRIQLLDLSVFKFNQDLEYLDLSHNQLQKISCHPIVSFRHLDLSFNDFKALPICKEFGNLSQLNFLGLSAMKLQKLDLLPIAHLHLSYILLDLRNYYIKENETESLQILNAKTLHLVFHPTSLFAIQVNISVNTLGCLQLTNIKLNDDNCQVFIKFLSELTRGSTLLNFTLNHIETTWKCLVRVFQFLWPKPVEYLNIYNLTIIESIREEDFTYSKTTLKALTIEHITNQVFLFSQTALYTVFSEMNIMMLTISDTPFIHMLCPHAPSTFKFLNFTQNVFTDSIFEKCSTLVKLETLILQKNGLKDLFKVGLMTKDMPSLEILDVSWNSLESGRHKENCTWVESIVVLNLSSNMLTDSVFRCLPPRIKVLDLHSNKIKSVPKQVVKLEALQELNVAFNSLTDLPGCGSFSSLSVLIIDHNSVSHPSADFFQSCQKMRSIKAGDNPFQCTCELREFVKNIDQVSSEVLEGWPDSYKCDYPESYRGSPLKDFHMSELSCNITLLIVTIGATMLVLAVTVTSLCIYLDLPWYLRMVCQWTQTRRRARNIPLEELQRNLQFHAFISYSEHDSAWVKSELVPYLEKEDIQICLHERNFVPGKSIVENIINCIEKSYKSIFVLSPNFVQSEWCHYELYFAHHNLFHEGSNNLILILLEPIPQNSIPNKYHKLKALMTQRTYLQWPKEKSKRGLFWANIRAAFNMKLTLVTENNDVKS
Experiment: In vitro TLR2 functional bioassay (NF-κB luciferase, HEK293/hTLR2 cells)
Type: cell-based
Parameters: host or cells: HEK293 stably transfected with pUNO-hTLR2, transiently transfected with the pNifty-Luc reporter
Conditions: for pEC50: log(agonist) vs. normalized response, doses 0.01 ng/mL to 1 μg/mL, read-out: EC50; for TLR2 Agonist Activity: screened at 1 μg/mL; for fold of enhancement vs SAA at 1 μg/mL / fold of enhancement vs SAA at 10 μg/mL: compound at 1 μg/mL
Source text: In Vitro TLR2 Functional Bioassay The in vitro TLR2 functional bioassay was developed and optimized for use in screening soluble compound libraries to identify both TLR2 agonists and antagonists. In this study, the TLR2 functional bioassay was used as a fast high throughput screening to identify TLR2 agonist ligands by measuring the inducing activity of NF-κB. HEK293/hTLR2 cells, highly overexpressing human TLR2, were used along with the parental HEK293, cells as a negative control. Cells were seeded at a density of 40,000 per well using a WellMate® Microplate dispenser (Thermo Fischer Scientific/Matrix) in black 96-well plates with opaque white wells (Perkin Elmer Wallac, Waltham, Mass.) and then incubated at 37° C. On day 2, the cells were transiently transfected with pNifty-Luc (InvivoGen), an NF-κB inducible reporter plasmid expressing the luciferase reporter gene (Zuany-Amorim, C., J., et al. Nat Rev Drug Discov, 2002. 1(10):797-807), using an optimized 4:1 ratio by volume of Fugene® HD Transfection Reagent (Roche Applied Science, Indianapolis, Ind.) to pNifty-Luc plasmid DNA (1 μg/mL). […] On day 4 after 24 hrs of peptide stimulation, luciferase induced activity by the induction of NF-κB was measured. Media was aspirated from the wells using an ELx405 Select plate washer (BioTek, Winooski, Vt.), 150 μg/mL D-luciferin (Gold Biotechnology, St. Louis, Mo.) was dispensed using the microplate dispensor; the plates were incubated at 37° C. for 5 min. The luminescence intensity was measured using the standard luminescence protocol on a Victor™ X4 plate-reader equipped with a plate stacker for readout of multiple plates at a time (PerkinElmer, Waltham, Mass.). For each in vitro TLR2 bioassay, at least three different experiments were performed in triplicate (n=3+). Data were analyzed with GraphPad Prism software and curves were generated with the appropriate nonlinear fit regression analysis.
The in vitro TLR2 functional bioassay was developed and optimized for use in high-throughput screening of soluble compound libraries to identify both TLR2 agonists and antagonists. The bioassay measures the induction of NF-κB signaling via TLR2 in HEK-293/hTLR2 cells and parental HEK-293 cells as a negative control. Cells were seeded at a density of 40,000 per well using a WellMate Microplate dispenser (Thermo Fisher Scientific/Matrix) in black 96-well plates with opaque white wells (PerkinElmer, Waltham, Mass.) and then incubated at 37° C. On day 2, the cells were transiently transfected with pNifty-Luc (InvivoGen, San Diego, Calif.), an NF-κB inducible reporter plasmid expressing the luciferase reporter gene[28] using an optimized 4:1 ratio by volume of FugeneHD Transfection Reagent (Promega, Madison, Wis.) to pNifty-Luc plasmid DNA (1 μg/mL). […] […] On day 4 after 24 h of peptide stimulation, luciferase induced activity by the induction of NF-κB was measured. Media was aspirated from the wells using an ELx405 Select CW plate washer (BioTek, Winooski, Vt.), 150 μg/mL D-luciferin (Gold Biotechnology, St. Louis, Mo.) was dispensed using the microplate dispensor; the plates were incubated at 37° C. for 5 min. The luminescence intensity was measured using the standard luminescence protocol on a Victor X4 Multilabel plate reader equipped with a plate stacker for readout of multiple plates at a time (PerkinElmer, Waltham, Mass.). […] Data were analyzed with GraphPad Prism software and curves were generated with the appropriate nonlinear fit regression analysis.

Molecule	TLR2 Agonist Activity	other results
CCCCCCCCCCCCCCCC(=O)OC[C@H](CSC[C@H](NC(=O)COCC(=O)NCCCOCCOCCOCCCNC(C)=O)C(=O)NCC(=O)N[C@@H](CC(N)=O)C(=O)N[C@@H](CC(N)=O)C(=O)N[C@@H](CC(=O)O)C(=O)N[C@@H](CCC(=O)O)C(=O)N[C@@H](CO)C(=O)N[C@@H](CC(N)=O)C(=O)N[C@H](C(=O)N[C@@H](CO)C(=O)N[C@@H](Cc1ccccc1)C(=O)N[C@@H](CCCCN)C(=O)N[C@@H](CCC(=O)O)C(=O)N[C@@H](CCCCN)C(N)=O)[C@@H](C)CC)OC(=O)CCCCCCCCCCCCCCC [Compound 3] (X1-C(Propyl(2R-PamO,3-PamO))GNNDESNISFKEK-NH2)	Yes	pEC50: 7.25
CCCCCCCCCCCCCCCC(=O)OCC(CSCC(NC(=O)COCC(=O)NCCCOCCOCCOCCCNC(C)=O)C(=O)NC(CO)C(=O)NC(CCCNC(=N)N)C(=O)NC(Cc1ccccc1)C(=O)NC(CC(=O)O)C(=O)NC(CCC(=O)O)C(=O)NC(CC(=O)O)C(=O)NC(CC(=O)O)C(=O)NC(CC(C)C)C(=O)NC(CCC(=O)O)C(N)=O)OC(=O)CCCCCCCCCCCCCCC (centres unmarked) [Compound 8] (X1-C(X2)SRFDEDDLE-NH2; configuration not given here)		fold of enhancement vs SAA at 1 μg/mL: 11 fold; fold of enhancement vs SAA at 10 μg/mL: 4.2 fold
CCCCCCCCCCCCCCCC(=O)OC[C@H](CSC[C@H](NC(=O)COCC(=O)NCCCOCCOCCOCCCNC(C)=O)C(=O)NCC(=O)N[C@@H](CO)C(=O)N[C@@H](CCC(N)=O)C(=O)N[C@@H](CC(N)=O)C(=O)N[C@@H](CC(C)C)C(=O)N[C@@H](C)C(=O)N[C@@H](CO)C(=O)N[C@@H](CC(C)C)C(=O)N[C@@H](CCC(=O)O)C(=O)N[C@@H](CCC(=O)O)C(N)=O)OC(=O)CCCCCCCCCCCCCCC [Compound 9] (X1-C(Propyl(2R-PamO,3-PamO))GSQNLASLEE-NH2)		fold of enhancement vs SAA at 1 μg/mL: 13 fold; fold of enhancement vs SAA at 10 μg/mL: 4.8 fold; pEC50: 7.11
Ac-Aha-Dhc(Pam)2-Gly-Asn-Asn-Asp-Glu-Ser-Asn-Ile-Ser-Phe-Lys-Glu-Lys-NH2 ({Ac-Ahx-Dhc(Pam)2″}-GNNDESNISFKEK-NH2) [Compound 4]	Yes	
Ac-Aun(C11)-Dhc(Pam)2-Gly-Asn-Asn-Asp-Glu-Ser-Asn-Ile-Ser-Phe-Lys-Glu-Lys-NH2 ({Ac-Aun(C11)-Dhc(Pam)2″}-GNNDESNISFKEK-NH2) [Compound 6]	Yes	
Adapalene-Dhc(Pam)2-Gly-Asn-Asn-Asp-Glu-Ser-Asn-Ile-Ser-Phe-Lys-Glu-Lys-NH2 ({Adapalene-Dhc(Pam)2″}-GNNDESNISFKEK-NH2) [Compound 5]	Yes	
Fluorescein-Dhc(Pam)2-Gly-Asn-Asn-Asp-Glu-Ser-Asn-Ile-Ser-Phe-Lys-Glu-Lys-NH2 ({Fluorescein-Dhc(Pam)2″}-GNNDESNISFKEK-NH2) [Compound 2]	Yes	
Pam-Dhc(Pam)2-Gly-Asn-Asn-Asp-Glu-Ser-Asn-Ile-Ser-Phe-Lys-Glu-Lys-NH2 ({Palmitoyl-Dhc(Pam)2″}-GNNDESNISFKEK-NH2) [Compound 1]	Yes	
Tretinoin-Dhc(Pam)2-Gly-Asn-Asn-Asp-Glu-Ser-Asn-Ile-Ser-Phe-Lys-Glu-Lys-NH2 [Compound 7]	Yes	
Trp1455/9M: Trp1455/9M (TAPDNLGYM), H2 Db-optimized peptide from mouse tyrosinase-related protein-1, epitope for CD8 T cells [reference compound]		TLR2 agonist activity of vaccine peptide: not a TLR2 agonist
